Measurements from patent publication US9849136B2, “Thiazole and oxazole-substituted arylamides as P2X3 and P2X2/3 antagonists” (Roche Palo Alto LLC, priority 2006, dated 2017).

Legend:
[1] = target: T1, human P2X2/3 receptor (Homo sapiens, UniProt P56373+Q9UBL9); assay: P2X2/3 FLIPR (Fluorometric Imaging Plate Reader) assay; type: cell-based; conditions: CHO-K1 cells transfected with human P2X2/3; agonist α,β-meATP 5 μM; Fluo-3 calcium fluorescence
T1 construct: expressed in transfected cells; host or cells: CHO-K1
T1 sequence (Q9UBL9 1-471): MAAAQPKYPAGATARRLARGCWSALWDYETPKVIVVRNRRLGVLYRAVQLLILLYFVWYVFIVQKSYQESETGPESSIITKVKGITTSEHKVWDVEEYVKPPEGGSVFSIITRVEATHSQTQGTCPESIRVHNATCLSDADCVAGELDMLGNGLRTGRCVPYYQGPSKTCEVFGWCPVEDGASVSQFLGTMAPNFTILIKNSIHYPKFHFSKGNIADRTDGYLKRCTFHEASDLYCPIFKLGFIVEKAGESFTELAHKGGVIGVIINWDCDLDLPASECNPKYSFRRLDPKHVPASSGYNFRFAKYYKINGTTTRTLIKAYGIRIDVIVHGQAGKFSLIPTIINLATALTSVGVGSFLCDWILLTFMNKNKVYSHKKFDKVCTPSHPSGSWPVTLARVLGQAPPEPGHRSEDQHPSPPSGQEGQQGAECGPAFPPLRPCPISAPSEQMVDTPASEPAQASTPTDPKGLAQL
T1 sequence (P56373 1-397): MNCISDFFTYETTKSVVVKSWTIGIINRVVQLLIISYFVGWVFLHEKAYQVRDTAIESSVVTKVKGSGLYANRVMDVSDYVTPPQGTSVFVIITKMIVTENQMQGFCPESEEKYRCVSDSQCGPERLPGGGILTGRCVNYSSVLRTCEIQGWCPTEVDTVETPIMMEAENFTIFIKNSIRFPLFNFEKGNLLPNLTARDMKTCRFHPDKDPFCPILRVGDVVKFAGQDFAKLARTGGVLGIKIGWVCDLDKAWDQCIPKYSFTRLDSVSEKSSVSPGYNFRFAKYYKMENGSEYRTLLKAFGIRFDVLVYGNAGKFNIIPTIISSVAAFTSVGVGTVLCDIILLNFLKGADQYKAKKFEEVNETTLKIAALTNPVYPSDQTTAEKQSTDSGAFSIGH
Procedure: (§1) CHO-Kl cells were transfected with cloned rat P2X3 or human P2X2/3 receptor subunits and passaged in flasks. 18-24 hours before the FLIPR experiment, cells were released from their flasks, centrifuged, and resuspended in nutrient medium at 2.5×10^5 cells/ml. The cells were aliquoted into black-walled 96-well plates at a density of 50,000 cells/well and incubated overnight in 5% CO2 at 37° C. On the day of the experiment, cells were washed in FLIPR buffer (calcium- and magnesium-free Hank's balanced salt solution, 10 mM HEPES, 2 mM CaCl2, 2.5 mM probenecid; FB). Each well received 100 μl FB and 100 μl of the fluorescent dye Fluo-3 AM [2 μM final conc.]. […]
(§2) Test compounds (dissolved in DMSO at 10 mM and serially diluted with FB) or vehicle were added to each well (25 μl of a 4× solution) and allowed to equilibrate for 20 minutes at room temperature. The plates were then placed in the FLIPR and a baseline fluorescence measurement (excitation at 488 nm and emission at 510-570 nm) was obtained for 10 seconds before a 100 μl/well agonist or vehicle addition. […] Fluorescence was measured for an additional 2 minutes at 1 second intervals after agonist addition. A final addition of ionomycin (5 μM, final concentration) was made to each well of the FLIPR test plate to establish cell viability and maximum fluorescence of dye-bound cytosolic calcium. […]

[2] = target: T2, rat P2X3 receptor (Rattus norvegicus, UniProt P49654); assay: P2X3 FLIPR (Fluorometric Imaging Plate Reader) assay; type: cell-based; conditions: CHO-K1 cells transfected with cloned rat P2X3; agonist α,β-meATP 1 μM; Fluo-3 calcium fluorescence
T2 construct: expressed in transfected cells; host or cells: CHO-K1
T2 sequence (P49654 1-397): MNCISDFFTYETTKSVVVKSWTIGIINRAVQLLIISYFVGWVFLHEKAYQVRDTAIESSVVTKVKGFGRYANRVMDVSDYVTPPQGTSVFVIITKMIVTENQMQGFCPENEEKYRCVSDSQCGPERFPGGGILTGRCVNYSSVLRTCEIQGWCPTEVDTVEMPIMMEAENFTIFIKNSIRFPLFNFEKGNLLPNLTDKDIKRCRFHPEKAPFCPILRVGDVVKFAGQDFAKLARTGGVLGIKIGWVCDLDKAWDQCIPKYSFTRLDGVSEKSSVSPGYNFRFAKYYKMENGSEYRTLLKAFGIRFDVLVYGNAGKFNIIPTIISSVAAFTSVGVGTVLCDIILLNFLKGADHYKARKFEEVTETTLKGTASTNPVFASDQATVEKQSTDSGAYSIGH
Procedure: as §1, §2

| Compound | pKi for the P2X2/3 receptor [1] | pIC50 for the P2X3 receptor [2] |
| --- | --- | --- |
| Cc1ccc(-c2cc(C(=O)N[C@H](C)CN3CCOCC3)cc(-c3scnc3C)c2)cc1 [Compound 43, (R)-4′-Methyl-5-(4-methyl-thiazol-5-yl)-biphenyl-3-carboxylic acid (1-methyl-2-morpholin-4-yl-ethyl)-amide] | approximately 7.30 |  |
| Cc1ccc(-c2cc(C(=O)N[C@@H](C)CO)cc(-c3scnc3C)c2)cc1 [Compound 45, (S)-4′-Methyl-5-(4-methyl-thiazol-5-yl)-biphenyl-3-carboxylic acid (2-hydroxy-1-methyl-ethyl)-amide] |  | approximately 8.24 |
